In US12263153B2, “Pharmaceutical composition, methods for treating and uses thereof” (Boehringer Ingelheim International GmbH, priority 2016, dated 2025):

Assays:
[1] = blood pressure, heart rate and sympathetic activation under empagliflozin treatment; assay type: in vivo; settings: treatment with empagliflozin
From the text: It may be assumed that altered glucose and sodium gradients within the kidney may generate a sympathoinhibitory afferent renal nerve signal. The lack of sympathetic activation may contribute to a beneficial cardiovascular and renal profile of empagliflozin (cardiorenal axis). Based on clinical and non-clinical studies including mechanistic considerations, such as the effect of empagliflozin on human autonomic cardiovascular regulation, the use of empagliflozin in the treatment, prevention or slowing the progression of certain diseases and conditions or reducing the risk thereof, in particular chronic kidney disease and cardiovascular death in certain patients, is described hereinbefore and hereinafter.

[2] = patients with type 2 diabetes mellitus and high cardiovascular risk; cited from earlier work
[3] = human, in vivo; cited from earlier work

Compound: OC[C@H]1O[C@@H](c2ccc(Cl)c(Cc3ccc(O[C@H]4CCOC4)cc3)c2)[C@H](O)[C@@H](O)[C@@H]1O [empagliflozin, 1-chloro-4-(β-D-glucopyranos-1-yl)-2-[4-((S)-tetrahydrofuran-3-yloxy)-benzyl]-benzene]
- heart rate [1]: without clinically relevant changes
- risk of cardiovascular death [2]: reduced the risk
- risk of overall mortality [2]: reduced the risk
- arterial stiffness [3]: reduced arterial stiffness
- direct vascular effects [3]: direct vascular effects
- diuretic effect [3]: shows a diuretic effect
